Experimental data as given in patent publication US8691947B2, “Materials related to sodium/potassium adenosine triphosphatase and Src” (The University of Toledo, priority 2010, dated 2014).
“Also recorded” adds a separate entry of the source.

Columns and labels:
Src SH2 domain = Src SH2 domain (Homo sapiens, UniProt P12931); assay: GST pull-down of GST-CD2 binding to Src in the absence and presence of peptides; conditions: peptide incubated with GST-CD2 and Src for 15 min, Western blot with anti-Src antibody
Experimental: CD2C2 was added to a mixture of Src and GST-CD2 at indicated concentrations. Src in the pull-down products was analyzed by Western blot with anti-Src antibody.
To support this notion, the inventors checked whether the peptides derived from C-terminus of CD2 can attenuate the binding between CD2 and Src. Purified GST-CD2 was incubated with Src in the absence and presence of peptides for 15 min. Then pull-down pellets were analyzed by Western blot with antibody against Src. […] If CD2C2 peptide disrupts the SH2/CD2 interaction, the inventors expect that CD2C2 may abolish CTS-induced Src activation. To test that, the inventors preincubated Src with indicated amount of CD2 peptides for 15 min in PBS. Then purified pig kidney Na/K-ATPase was added for another 15 min. 1 μM ouabain was added to mixture for 5 min. Then Src autophosphorylation was detected in the presence of 2 mM ATP/Mg^2+. […] Therefore, to search for new antagonists, the inventors will perform the following four sets of experiments.

Na/K-ATPase/Src complex = molecular target: T1, Na/K-ATPase/Src complex (Homo sapiens, UniProt P12931); assay: Ouabain-induced Src activation (Tyr418 autophosphorylation, Western blot) in a mixture of purified Na/K-ATPase and Src; assay type: biochemical; conditions: Src preincubated with peptide 15 min, pig kidney Na/K-ATPase 15 min, 1 μM ouabain 5 min, 2 mM ATP/Mg2+
T1 construct: purchased
Experimental: FIG. 4. […] CD2C2 peptide was incubated with purified Src (the amount was indicated as molar ratio of Src/Cd2C2) for 15 minutes in PBS solution. Then purified Na/K-ATPase from pig kidney was added for another 15 minutes. After that, ouabain was added to the reaction system for 5 minutes, followed by addition of 2 mM Mg2+/ATP. The Src activity was determined by Western blot probing with anti-phosphorylated Tyr418. A representative Western blot was shown, and quantitative data was presented as mean±S.E. of at 3 separate experiments. **, p<0.01.
FIG. 7B, antagonizing ouabain-induced Src activation by CD2C2. Src was preincubated with indicated amount of CD2C2 peptide for 15 min in PBS. […] Then Src autophosphorylation was detected in the presence of 2 mM ATP/Mg^2+. […]
To support this notion, the inventors checked whether the peptides derived from C-terminus of CD2 can attenuate the binding between CD2 and Src. […] Then pull-down pellets were analyzed by Western blot with antibody against Src. […] Then Src autophosphorylation was detected in the presence of 2 mM ATP/Mg^2+. […]
The inventors incubated the test chemicals with commercially available purified Src for 15 minutes in PBS solution. […] The Src activity was determined by Western blot probing with anti-phosphorylated Tyr418. […] Both peptides were incubated in a 96 well plate, and the FRET energy transfer was measured using a spectra meter. […]

[1] = molecular target: T2, Na/K-ATPase-associated Src (Sus scrofa, UniProt P05024); assay type: biochemical, pig; conditions: for Effect on activity of Na/K-ATPase-associated Src: purified pig kidney Na/K-ATPase treated with modifier or ouabain, incubated with purified Src; for Effect on activity of Na/K-ATPase-associated Src, Na/K-ATPase stabilized in E1P: NEM and AMP-PNP used together
T2 construct: The Na/K-ATPase was purified from pig kidney and the purified Src was purchased from Upstate; tissue Upstate (for the Src chain); host or cells: pig kidney
Experimental: The Na/K-ATPase was purified from pig kidney and the purified Src was purchased from Upstate. To stabilize the Na/K-ATPase in the E2P conformation, the purified Na/K-ATPase was treated by two different fluoride compounds (BeF and AIF) as described, washed and then incubated with Src. The ouabain-treated and control Na/K-ATPase/Src complex was used as positive and negative controls for the experiments, respectively. Similarly, the Na/K-ATPase was stabilized at the E1P state by NEM/AMPPNP as described and then analyzed.
The purified Na/K-ATPase was subjected to chymotrypsin or trypsin digestion as described. The digested enzyme was washed and assayed for Na/K-ATPase activity. The enzyme preparations with less than 25% activity was incubated with Src in 150 mM Na^+ medium in the presence or absence of 10 μM ouabain. The non-digested enzyme was used as control. […] Quantitative data was presented as mean±S.E. of at least 3 separate experiments. *, p<0.05; **, p<0.01.
The inventors utilized different chemical modifiers to stabilize the Na/K-ATPase in distinct conformational states and then assessed the conformation-dependent effect of Na/K-ATPase on Src. Fluoride compounds such as aluminum fluoride and beryllium fluoride, can interact with Na/K-ATPase as phosphate analogues, and stabilize the enzyme as well as other P-type ATPase in the E2P conformation.

LLC-PK1 cells = assay: Western blot of Src and ERKs in LLC-PK1 cell lysates; assay type: cell-based
Experimental: FIG. 3E, FIG. 3F, and FIG. 3G: Cells were exposed to media containing different concentrations of K^+ or Na^+, and then lysed. Cell lysates were subjected to Western blot analyses of Src and ERKs as indicated. Quantitative data was presented as mean±S.E. of at three independent experiments. *, p<0.05; **, p<0.01.
To verify these findings, the inventors also conducted Western blot analyses of cell lysates after the cells were incubated in normal or low K^+ medium.

Row | Molecule | Effect on activity of Na/K-ATPase-associated Src [1] | Effect on activity of Na/K-ATPase-associated Src, Na/K-ATPase stabilized in E1P [1] | further results
1 | STNCV EGTAR GIVVY TGD (STNCVEGTARGIVVYTGD; listed as Sus scrofa) [CD2C2, peptide derived from C-terminus of CD2 of Na/K-ATPase α1 subunit; ouabain antagonist] | – | – | Competition with binding of GST-CD2 to Src (Src in pull-down products) (Src SH2 domain): attenuates the binding of CD2 to Src; also recorded: able to compete with and block the binding of GST-CD2 to Src SH2 domain; Competition with binding of GST-CD2 to Src (Src in pull-down products) (Src SH2 domain; listed as SEQ ID NO:1): disrupts the interaction of the ATPase CD2/Src SH2 domain; Antagonism of ouabain-induced Src activation (Na/K-ATPase/Src complex): potent ouabain antagonist; also recorded: abolished ouabain-induced Src activation in a dose-dependent manner; Antagonism of ouabain-induced Src activation (Na/K-ATPase/Src complex; listed as SEQ ID NO:1): abolishes ouabain-induced Src stimulation
2 | [Be+2].[F-].[F-] [beryllium fluoride] | sufficient to stimulate the Na/K-ATPase-associated Src | – | –
3 | CCN1C(=O)C=CC1=O [NEM, N-ethylmaleimide] | – | completely inhibited | –
4 | aluminum fluoride | sufficient to stimulate the Na/K-ATPase-associated Src | – | –
5 | C[C@@H]1O[C@@H](O[C@H]2C[C@@H](O)[C@]3(CO)[C@H]4[C@H](O)C[C@]5(C)[C@@H](C6=CC(=O)OC6)CC[C@]5(O)[C@@H]4CC[C@]3(O)C2)[C@H](O)[C@H](O)[C@H]1O [ouabain] | able to stimulate the Na/K-ATPase-associated Src | – | Effect on cellular Src activity and ERKs (LLC-PK1 cells): stimulated cellular Src activity
6 | Nc1ncnc2c1ncn2[C@@H]1O[C@H](COP(=O)(O)OP(=O)(O)NP(=O)(O)O)[C@@H](O)[C@H]1O [AMP-PNP, adenyl-5′-yl imidodiphosphate] | – | completely inhibited | –
